# Source: patent publication US9328057B2, “Chiral arylketones in the treatment of neutrophil-dependent inflammatory diseases” (DOMPE' FARMACEUTICI S.P.A., priority 2002, dated 2016)
# System: chemiotaxis of human PMN leucocytes (PMNs) stimulated by interleukin 8
# Experiment: chemiotaxis of human PMNs stimulated by IL-8 (48-well microchamber)
# Assay type: cell-based
# Conditions: Leucocyte, 10 min, IL-8 10 ng/mL, 10 minutes incubation at 37° C., read-out: IC50 (dose inhibiting 50% of the effect), chemiotaxis induced by IL-8 (converted)
# Description: For evaluation of the compounds of the invention, polymorphonucleated blood cells were used obtained from heparinized blood of healthy adult volunteers by means of sedimentation on dextran. The mononucleated cells were removed by means of Ficoll/Hypaque, whilst the red blood cells were eliminated by treatment with hypotonic solutions. The cell vitality of the polymorphonucleated leucocytes (PMNs) was calculated by means of exclusion with Turk and Trypan Blue whilst after staining with Diff Quinck the percentage of the PM-nucleates on the cytocentrifugate was estimated (for details of the experimental techniques used see W. J. Ming et al., J. Immunol., 138, 1469, 1987). In each of the in vitro experiments, time periods of 10 minutes were used for the incubation of the PMNs with the compounds of the invention, operating at a temperature of 37° C.
# In the experiments of chemiotaxis and in those designed for measuring the cytosol levels of the Ca^2+ ion, human recombinant IL-8 (Pepro Tech.) was used as stimulant: the liophilized protein was dissolved in HBSS (Hank's balanced salts solution) at a concentration of 100 ng/mL and was used after dilution in HBSS down to concentrations of 10 ng/mL in the chemiotaxis experiments and at the concentration of 25-50 ng/mL in the evaluation of the modifications of [Ca^2+]. […]
smiles,measurement,value
"CC(=O)[C@H](C)c1ccc(CC(C)C)cc1 [R(−)-3-[(4′-isobutyl)phenyl]butan-2-one, (R)(−)-3-[(4′-isobutyl)phenyl]butan-2-one]",IC50,0.5 nM
